Results taken from publication PMC2949399, “Gene Expression Signature-Based Screening Identifies New Broadly Effective Influenza A Antivirals” (PLoS ONE, 2010).
pEC50: −log10 of the molar value. Read-outs that look alike come from different tables or passages of the source.

Tests used:
[1] = system: A/Finch/England/2051/94 (H5N2)
A/Turkey/582/2006 (H5N1) [2] = system: A/Turkey/582/2006 (H5N1)
[3] = system: A/New Caledonia/20/99 (H1N1)
[4] = system: A/Chicken/Italy/2076/99 (H7N1)
[5] = system: A/Lyon/969/09 (H1N1 SOIV)
in vitro = conditions: human
[6] = system: A/New Caledonia/20/99 (H1N1); assay: microbe, parasite or virus in culture; conditions: Influenza A virus
[7] = system: A/Finch/England/2051/94 (H5N2); assay: microbe, parasite or virus in culture; conditions: Influenza A virus, H5N2, A549, 65 h
[8] = system: A/Lyon/969/09 (H1N1 SOIV); assay: microbe, parasite or virus in culture; conditions: Influenza A virus
influenza A viruses = type: cell-based, influenza A virus
[9] = system: A/Chicken/Italy/2076/99 (H7N1); assay: microbe, parasite or virus in culture; conditions: Influenza A virus, H7N1, A549, in Gallus gallus, 65 h
A/Turkey/582/2006 (H5N1) [10] = assay: microbe, parasite or virus in culture; conditions: Influenza A virus
[11] = H1N1, A549, 65 h, read-out: EC50 H1N1 moi 0.2
[12] = H1N1, A549, 65 h, read-out: EC50 H1N1 moi 2
[13] = H1N1, A549, 65 h, read-out: EC50 SOIV moi 0.2
[14] = H1N1, A549, 65 h, read-out: EC50 SOIV moi 2
[15] = H5N1, A549, 65 h, read-out: EC50 H5N1 moi 0.2
[16] = H5N1, A549, 65 h, read-out: EC50 H5N1 moi 2

| SMILES | CC50 (in vitro) [µM] | pEC50 [6, 11] | pEC50 [6, 12] | pEC50 ([7]; read-out: EC50 H5N2 moi 0.2) | pEC50 ([7]; read-out: EC50 H5N2 moi 2) | pEC50 [8, 13] | pEC50 [8, 14] | Inhibitor class across the tested viruses (influenza A viruses) | pEC50 ([9]; read-out: EC50 H7N1 moi 0.2) | pEC50 ([9]; read-out: EC50 H7N1 moi 2) | pEC50 (A/Turkey/582/2006 (H5N1) [10]; [15]) | pEC50 (A/Turkey/582/2006 (H5N1) [10]; [16]) | SI = CC50/EC50, H1N1 SOIV [5] | other results |
| --- | --- | --- | --- | --- | --- | --- | --- | --- | --- | --- | --- | --- | --- | --- |
| C1COC(NC(C2CC2)C2CC2)=N1 [Rilmenidine] |  |  |  |  |  |  |  |  |  |  |  |  |  | pEC50 ([1]; read-out: EC50 H5N2 moi 0.2): 3.45; pEC50 ([1]; read-out: EC50 H5N2 moi 2): 3.29; pEC50 (A/Turkey/582/2006 (H5N1) [2]; read-out: EC50 H5N1 moi 0.2): 2.83; pEC50 (A/Turkey/582/2006 (H5N1) [2]; read-out: EC50 H5N1 moi 2): 2.69; pEC50 ([3]; read-out: EC50 H1N1 moi 0.2): 4.62; pEC50 ([3]; read-out: EC50 H1N1 moi 2): 3.30; pEC50 ([4]; read-out: EC50 H7N1 moi 0.2): 3.11; pEC50 ([4]; read-out: EC50 H7N1 moi 2): 2.98; CC50 (A549 cells): 1130 µM; Inhibitor class / antiviral effect, H1N1 SOIV [5]: ineffective; pEC50 ([5]; read-out: EC50 SOIV moi 0.2): 3.06; pEC50 ([5]; read-out: EC50 SOIV moi 2): 2.97 |
| O=C(O)CNC(=O)C(CS)Cc1ccccc1 (racemic) [DL-Thiorphan] | 6280 |  |  |  |  |  |  |  |  |  |  |  |  |  |
| Nc1ccccc1S(N)(=O)=O [2-Aminobenzenesulfonamide, 2-aminobenzenesulfonamide] | > 6900 | < 3.16 | < 3.16 | < 3.16 | < 3.16 | 3.27 | 2.74 | inefficient | < 3.16 | < 3.16 | < 3.16 | < 3.16 | 13 | Cytotoxicity at the highest tested dose (A549 cells): none of these molecules was cytotoxic at the highest tested dose |
| Cc1cc(C(C)(C)CC(C)(C)C)ccc1OCCOCC[N+](C)(C)Cc1ccccc1 [Methylbenzethoniumchloride] |  |  |  |  |  |  |  |  |  |  |  |  |  | CC50 (A549 cells): 6.35 µM |
| COc1cnc(NS(=O)(=O)c2ccc(N)cc2)nc1 [Sulfameter] | 4160 |  |  |  |  |  |  |  |  |  |  |  |  |  |
| Cc1nccc2c1[nH]c1cc(O)ccc12.Cl [Harmol, harmol hydrochloride] |  |  |  |  |  |  |  |  |  |  |  |  | 14 | pEC50 ([1]; read-out: EC50 H5N2 moi 0.2): 4.87; pEC50 ([1]; read-out: EC50 H5N2 moi 2): 5.39; pEC50 (A/Turkey/582/2006 (H5N1) [2]; read-out: EC50 H5N1 moi 0.2): 4.36; pEC50 (A/Turkey/582/2006 (H5N1) [2]; read-out: EC50 H5N1 moi 2): 4.11; pEC50 ([3]; read-out: EC50 H1N1 moi 0.2): 4.69; pEC50 ([3]; read-out: EC50 H1N1 moi 2): 4.22; pEC50 ([4]; read-out: EC50 H7N1 moi 0.2): 4.55; pEC50 ([4]; read-out: EC50 H7N1 moi 2): 4.31; CC50 (A549 cells): 95 µM; pEC50 ([5]; read-out: EC50 SOIV moi 0.2): 5.17; pEC50 ([5]; read-out: EC50 SOIV moi 2): 4.27 |
| COc1ccc(OC)c(C(O)CNC(=O)CN)c1 (stereo not drawn) [Midodrine, midodrine] | > 4250 | 4.53 | 2.81 | 3.32 | 2.78 | 3.96 | 3.03 | weak to moderate inhibitors | < 2.37 | < 2.37 | 2.41 | < 2.37 | 40 | SI = CC50/EC50, H5N1 (A/Turkey/582/2006 (H5N1) [2]): 1.09; Cytotoxicity at the highest tested dose (A549 cells): none of these molecules was cytotoxic at the highest tested dose |
| Nc1nc2c(c(=O)[nH]1)N(C=O)C(CNc1ccc(C(=O)N[C@@H](CCC(=O)O)C(=O)O)cc1)CN2 (stereo partly drawn) [Calcium Folinate, calcium folinate] | > 2400 | < 3.10 | < 3.10 | < 3.10 | < 3.10 | < 2.62 | < 2.62 | inefficient | < 3.10 | < 3.10 | < 3.10 | < 3.10 |  | Cytotoxicity at the highest tested dose (A549 cells): none of these molecules was cytotoxic at the highest tested dose |
| O=C([O-])c1ccccc1-c1c2cc(Br)c(=O)cc-2oc2[c]([Hg+])c([O-])c(Br)cc12.[Na+].[Na+].[OH-] [Merbromin, merbromine] |  |  |  |  |  |  |  |  |  |  |  |  |  | SI = CC50/EC50, H5N2 [1]: 2.7; pEC50 ([1]; read-out: EC50 H5N2 moi 0.2): 4.66; pEC50 ([1]; read-out: EC50 H5N2 moi 2): 4.44; pEC50 (A/Turkey/582/2006 (H5N1) [2]; read-out: EC50 H5N1 moi 0.2): 4.34; pEC50 (A/Turkey/582/2006 (H5N1) [2]; read-out: EC50 H5N1 moi 2): 4.35; SI = CC50/EC50, H1N1 [3]: 2.01; pEC50 ([3]; read-out: EC50 H1N1 moi 0.2): 4.21; pEC50 ([3]; read-out: EC50 H1N1 moi 2): 4.53; SI = CC50/EC50, H7N1 [4]: 2.4; pEC50 ([4]; read-out: EC50 H7N1 moi 0.2): 4.33; pEC50 ([4]; read-out: EC50 H7N1 moi 2): 4.36; pEC50 (influenza A viruses; read-out: EC50 (all viruses tested)): ~4.30; CC50 (A549 cells): 104 µM; pEC50 ([5]; read-out: EC50 SOIV moi 0.2): < 4.30; pEC50 ([5]; read-out: EC50 SOIV moi 2): 4.43 |
| CCCCCCCCNC(C)C(O)c1ccc(SC(C)C)cc1 (stereo not drawn) [Sulodictil] | 100 |  |  |  |  |  |  |  |  |  |  |  |  |  |
| C[S+](C)[O-] [DMSO, dimethylsulfoxide] |  |  |  |  |  |  |  |  |  |  |  |  |  | pEC50 ([1]; read-out: EC50 H5N2 moi 0.2): 3.25; pEC50 ([1]; read-out: EC50 H5N2 moi 2): 3.13; pEC50 (A/Turkey/582/2006 (H5N1) [2]; read-out: EC50 H5N1 moi 0.2): 2.74; pEC50 (A/Turkey/582/2006 (H5N1) [2]; read-out: EC50 H5N1 moi 2): < 2.80; pEC50 ([3]; read-out: EC50 H1N1 moi 0.2): 3.76; pEC50 ([3]; read-out: EC50 H1N1 moi 2): < 2.80; pEC50 ([4]; read-out: EC50 H7N1 moi 0.2): 3.10; pEC50 ([4]; read-out: EC50 H7N1 moi 2): 2.95; pEC50 ([5]; read-out: EC50 SOIV moi 0.2): 3.46; pEC50 ([5]; read-out: EC50 SOIV moi 2): 3.22 |
| CCN[C@H]1CN(CCCOC)S(=O)(=O)c2sc(S(N)(=O)=O)cc21 [Brinzolamide, brinzolamide] | 666 | 4.54 | 3.36 | 3.84 | 3.63 | 4.67 | 3.78 | weak to moderate inhibitors | 3.86 | 3.26 | < 3.30 | < 3.30 | 31 | Inhibitor class, H5N2 [1]: weak inhibitor; Inhibitor class / antiviral effect, H1N1 [3]: moderate inhibitor; Inhibitor class, H7N1 [4]: weak inhibitor |
| CO[C@H]1/C=C\C=C(/C)C(=O)NC2=CC(=O)C(NCCN(C)C)=C(C[C@@H](C)C[C@H](OC)[C@H](O)[C@@H](C)/C=C(\C)[C@@H]1OC(N)=O)C2=O [alvespimycin, Alvespimycin] | > 10 |  |  |  |  |  |  |  |  |  |  |  |  |  |
| NC(=O)c1ncn([C@@H]2O[C@H](CO)[C@@H](O)[C@H]2O)n1 [Ribavirin, ribavirin] | 29500 | 5.18 | 4.13 | 5.17 | 4.79 | 4.21 | 3.54 | strong inhibitor | 4.90 | 4.49 | 4.32 | 3.20 | 482 | pEC50 ([6]; H1N1, A549, read-out: EC50 H1N1 moi 0.2): 5.22; SI = CC50/EC50, H5N1 (A/Turkey/582/2006 (H5N1) [2]): 911; SI = CC50/EC50, H7N1 [4]: 1367; pEC50 ([8]; H1N1, A549, read-out: EC50 SOIV moi 0.2): 4.21; pEC50 ([8]; H1N1, A549, read-out: EC50 SOIV moi 2): 3.53; pEC50 (A/Turkey/582/2006 (H5N1) [10]; H5N1, A549, read-out: EC50 H5N1 moi 2): 3.20 |
| CO[C@@]1(NC(=O)C(C(=O)O)c2ccc(O)cc2)C(=O)N2C(C(=O)O)=C(CSc3nnnn3C)CO[C@@H]21 (stereo partly drawn) [Latamoxef, moxalactam] | 593 |  |  |  |  |  |  |  |  |  |  |  |  |  |
